Experiments:
Format in all cases: cell-based
BTK-GFP = molecular target: T1, BTK-GFP (Homo sapiens, UniProt Q06187+Q96SW2); assay: BTK-GFP protein abundance flow cytometry assay in HEK293A cells; conditions: 24 h; for BTK deg Amax %: % protein remaining at concentration of maximum degradation; for DC50: concentration at which 50% maximal degradation was observed
T1 construct: the BTK open reading frame (ORF) was first shuttled from a pcDNA-DEST40-BTK vector (Invitrogen library ID INV_20090504v1); expressed in transfected cells; host or cells: HEK293A cells (Invitrogen R70507), lentiviral transduction with pLenti6-BTK-GFP-Ires-RFP, blasticidin-selected
T1 sequence (Q06187 whole entry): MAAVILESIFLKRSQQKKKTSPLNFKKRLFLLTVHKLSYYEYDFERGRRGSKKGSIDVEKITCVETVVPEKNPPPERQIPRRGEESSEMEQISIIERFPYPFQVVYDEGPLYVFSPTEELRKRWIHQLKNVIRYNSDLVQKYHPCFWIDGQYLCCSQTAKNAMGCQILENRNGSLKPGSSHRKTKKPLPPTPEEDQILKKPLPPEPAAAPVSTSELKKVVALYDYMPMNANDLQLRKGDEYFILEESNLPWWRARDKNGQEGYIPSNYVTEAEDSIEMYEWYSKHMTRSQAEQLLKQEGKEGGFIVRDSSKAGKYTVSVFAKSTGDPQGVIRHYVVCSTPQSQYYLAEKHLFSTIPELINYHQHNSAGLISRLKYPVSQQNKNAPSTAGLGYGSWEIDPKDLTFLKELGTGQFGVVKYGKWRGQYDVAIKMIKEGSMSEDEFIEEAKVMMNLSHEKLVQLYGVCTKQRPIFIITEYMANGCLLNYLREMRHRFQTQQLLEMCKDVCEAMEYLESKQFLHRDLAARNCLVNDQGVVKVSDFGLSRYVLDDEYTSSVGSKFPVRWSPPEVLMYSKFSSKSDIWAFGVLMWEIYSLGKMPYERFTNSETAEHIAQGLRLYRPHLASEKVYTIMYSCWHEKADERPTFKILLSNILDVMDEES
T1 sequence (Q96SW2 whole entry): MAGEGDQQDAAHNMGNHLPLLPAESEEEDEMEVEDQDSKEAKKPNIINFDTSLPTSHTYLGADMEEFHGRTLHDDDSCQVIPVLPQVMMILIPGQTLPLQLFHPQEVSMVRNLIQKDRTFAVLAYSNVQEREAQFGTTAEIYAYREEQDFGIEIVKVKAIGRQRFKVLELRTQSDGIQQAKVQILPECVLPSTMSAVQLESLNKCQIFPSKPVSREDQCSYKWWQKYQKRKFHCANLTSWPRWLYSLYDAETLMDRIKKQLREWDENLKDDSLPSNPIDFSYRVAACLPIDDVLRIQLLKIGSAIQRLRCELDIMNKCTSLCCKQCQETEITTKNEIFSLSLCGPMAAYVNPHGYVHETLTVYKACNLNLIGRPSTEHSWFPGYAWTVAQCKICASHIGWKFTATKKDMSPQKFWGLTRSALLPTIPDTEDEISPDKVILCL
T1 sequence (Q16531 whole entry partner): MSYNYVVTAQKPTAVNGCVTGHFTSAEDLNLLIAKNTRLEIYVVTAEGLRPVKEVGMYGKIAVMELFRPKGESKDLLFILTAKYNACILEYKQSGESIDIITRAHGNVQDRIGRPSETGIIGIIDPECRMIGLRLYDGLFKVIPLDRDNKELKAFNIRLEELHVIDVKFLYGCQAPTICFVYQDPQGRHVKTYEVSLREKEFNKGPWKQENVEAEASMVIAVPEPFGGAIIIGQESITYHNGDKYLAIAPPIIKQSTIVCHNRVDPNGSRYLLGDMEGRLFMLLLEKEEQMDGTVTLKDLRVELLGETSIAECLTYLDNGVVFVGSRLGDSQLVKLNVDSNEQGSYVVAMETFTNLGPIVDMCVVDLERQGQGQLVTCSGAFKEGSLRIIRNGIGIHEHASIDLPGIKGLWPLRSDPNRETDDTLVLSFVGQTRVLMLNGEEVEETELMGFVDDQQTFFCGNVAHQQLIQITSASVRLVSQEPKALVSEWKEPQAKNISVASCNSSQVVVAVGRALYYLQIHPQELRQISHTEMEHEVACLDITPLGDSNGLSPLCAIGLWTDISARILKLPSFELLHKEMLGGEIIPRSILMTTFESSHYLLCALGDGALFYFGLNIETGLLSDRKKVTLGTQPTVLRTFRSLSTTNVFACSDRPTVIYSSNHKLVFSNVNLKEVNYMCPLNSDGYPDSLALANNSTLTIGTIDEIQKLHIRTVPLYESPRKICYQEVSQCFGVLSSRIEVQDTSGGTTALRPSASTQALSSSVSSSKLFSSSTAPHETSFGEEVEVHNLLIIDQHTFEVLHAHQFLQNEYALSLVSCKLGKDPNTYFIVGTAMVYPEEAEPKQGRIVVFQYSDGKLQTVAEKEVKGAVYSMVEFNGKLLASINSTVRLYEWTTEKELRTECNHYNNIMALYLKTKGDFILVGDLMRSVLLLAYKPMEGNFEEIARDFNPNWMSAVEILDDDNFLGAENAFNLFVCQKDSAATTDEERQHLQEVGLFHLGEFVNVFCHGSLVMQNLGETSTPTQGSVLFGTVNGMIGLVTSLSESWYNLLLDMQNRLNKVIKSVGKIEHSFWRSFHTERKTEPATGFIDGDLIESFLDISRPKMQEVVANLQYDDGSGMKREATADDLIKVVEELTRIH
Method: (§1) Compounds of the invention were tested in the following cellular assays. The terms in Table 1 are defined as follows: DC50 refers to the concentration at which 50% maximal degradation was observed; deg Amax is the extent of degradation and the value refers to the % protein remaining at the concentration at which maximum degradation is seen; Prol GI50 refers to the proliferation data and defines the concentration at which 50% growth inhibition was observed compared to the vehicle treated control at the end of the incubation time. TMD8 cells are BTK dependent and OCI-LY3 cells are BTK independent.
(§2) BTK-GFP and IKZF3-GFP Protein Abundance Flow Cytometry Assay in HEK293A Cells:
(§3) Degradation of BTK or IKZF3 was measured in HEK293A cells (Invitrogen R70507) expressing either BTK-GFP and RFP or IKZF3-GFP and RFP from a stably integrated bicistronic BTK-GFP-iresRFP or IKZF3-GFP-iresRFP construct, respectively. Reduction of the GFP signal measured by flow cytometry served as readout for BTK or IKZF3 degradation after degrader treatment.
(§4) Stable HEK293A-BTK-GFP-iresRFP cells were maintained in complete growth medium (DMEM high Glucose+10% FCS+1% L-Glutamine+1% NEAA+1% NaPyr.) with passaging performed twice per week. On Day 0, HEK293A-BTK-GFP-iresRFP or HEK293A-IKZF3-GFP-iresRFP and HEK293A-iresRFP cells were seeded at 10,000 cells/well in a 96-well microtiter plate in 260 μl complete medium. On Day 1, cells were treated in duplicate with 10-point 1:3 dilution series of compound using the HP D300 Digital Dispenser (Tecan). DMSO concentrations were normalized across the plate to 0.1%. On Day 2, after 24 h of incubation at 37° C., treatment media was discarded, cells rinsed with 100 ul/well PBS and then detached using 40 ul trypsin/well for 5 min. Trypsin was neutralized with 100 ul/well PBS+20% FCS). Flow cytometry was performed on the samples using the BD FACS CANTO II (Becton Dickinson). Cell identification was then performed using forward (FSC) vs. side scatter (SSC) plots. Single cell discrimination is performed using SSC-Width (SSC-W) vs. SSC-Height (SSC-H) plots. Median GFP values for 5,000 single cells are used to determine BTK levels. Median GFP values from HEK293A-iresRFP are used as a background signal and thus defining 0% BTK signal. Median GFP values from DMSO treated HEK293A-BTK-GFP-iresRFP or HEK293A-IKZF3-GFP-iresRFP are used to define 100% BTK signal for subsequent DC50 curves (concentration at 50% BTK degradation). GFP and RFP are read in the channels called FITC and PE, respectively.
(§5) Concentration response curves plotting relative reduction of the GFP signal (measured by flow cytometry) versus 10 compound concentrations (starting concentration 10 μM, 3 fold dilution steps) of the compounds allowed generation of DC50 values.

IKZF3-GFP = molecular target: T2, IKZF3-GFP (Homo sapiens, UniProt Q9UKT9); assay: IKZF3-GFP protein abundance flow cytometry assay in HEK293A cells; conditions: 24 h, Table 1
T2 construct: gateway cloning of IKZF3 from a pENTR221-IKZF3(STOP-Leu) construct into the previously described pLenti6-DEST-GFP-Ires-RFP vector; expressed in transfected cells; host or cells: HEK293A cells (Invitrogen R70507), lentiviral transduction with pLenti6-IKZF3-GFP-Ires-RFP, blasticidin-selected
T2 sequence (Q96SW2 whole entry partner): as the sequence (Q96SW2 whole entry) above
T2 sequence (Q16531 whole entry partner): as the sequence (Q16531 whole entry partner) above
T2 sequence (Q9UKT9 whole entry): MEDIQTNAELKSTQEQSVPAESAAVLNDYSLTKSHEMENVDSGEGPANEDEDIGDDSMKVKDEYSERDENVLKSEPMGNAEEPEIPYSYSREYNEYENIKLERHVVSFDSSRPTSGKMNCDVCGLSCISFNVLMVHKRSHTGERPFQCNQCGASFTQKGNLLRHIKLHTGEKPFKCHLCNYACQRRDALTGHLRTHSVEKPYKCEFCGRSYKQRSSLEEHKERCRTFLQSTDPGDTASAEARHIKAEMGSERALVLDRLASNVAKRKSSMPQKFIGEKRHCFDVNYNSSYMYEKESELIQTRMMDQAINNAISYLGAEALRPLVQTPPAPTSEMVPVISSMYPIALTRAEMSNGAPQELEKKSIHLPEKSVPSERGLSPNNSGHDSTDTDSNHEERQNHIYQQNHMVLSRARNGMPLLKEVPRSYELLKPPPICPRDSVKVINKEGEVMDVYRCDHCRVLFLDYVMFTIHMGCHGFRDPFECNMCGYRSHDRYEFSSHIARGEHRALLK
Method: Compounds of the invention were tested in the following cellular assays. […] TMD8 cells are BTK dependent and OCI-LY3 cells are BTK independent.
as §2, §3, §4, §5
Data is shown in Table 2, in which, DC50 refers to the concentration at which 50% maximal degradation was observed; deg Amax is the extent of degradation and the value refers to the % protein remaining at the concentration at which maximum degradation is seen.

TMD8 cells = assay: Resazurin cell viability assay in DLBCL cells (TMD8); conditions: Homo sapiens, TMD8, 72 h, TMD8 cells (BTK dependent), 50% growth inhibition, read-out: TMD8 Prol GI50
Method: as §1
(§6) Cell Viability Assay in DLBCL (Diffuse Large B-Cell Lymphoma) Cells:
(§7) The effect of the BTK compounds on cell proliferation was measured by a Resazurin (Sigma, #R7017) based cell viability assay. TMD8 (BTK compound sensitive) and OCI-LY3 (BTK compound insensitive) cells were incubated for 72 h at 37° C. and 5% CO2 with the corresponding compound. Resazurin is a non-toxic, cell-permeable substrate that is virtually non-fluorescent. Upon entering living cells, Resazurin (Sigma, #R7017) is reduced to highly fluorescent Resorufin. The metabolic activity was assessed by measuring the fluorescence signal (ex. 530 nm; em. 600 nm).
(§8) TMD8 and OCI-Ly3 cells were seeded at day 0 in triplicates at a cell density of 1×10^4 cells per 150 μl/well in a 96-well plate (Costar #3904). Additional plates were prepared, in order to assess the basal metabolic activity of both cell lines at the beginning of the experiment. For these reference plates, Resazurin (Sigma, #R7017) was added to a final concentration of 13 μg/ml 3 h post seeding and was incubated for 2 h at 37° C. and 5% CO2. Following incubation, the fluorescent signal intensity of the 96-well plates was measured on a Mithras LB940 multimode plate reader at 530/600 nm (Berthold Technologies, Germany).
(§9) In parallel, 3 h post-seeding, test-plates were treated with compound at various concentrations, or with vehicle (DMSO) alone for 3 days. The compound addition to the plates was performed by using a HP D300 digital dispenser (TECAN, Switzerland). The compounds were tested in triplicate, 8-point serial dilution (1:4), with a start concentration of 10 μM for OCI-LY3 and 1 μM for the TMD8 cells, respectively. To assess the relative proliferation of the cells, Resazurin was added to each well directly to the medium to a final concentration of 13 μg/ml. The plates were incubated for 2 h at 37° C. and 5% CO2 to result in a 72 h endpoint. Following incubation, the fluorescent signal intensity of the 96-well plates were measured on a Mithras LB940 multimode plate reader at 530/600 nm (Berthold Technologies, Germany). The formation of Resorufin dye directly correlates with the number of metabolically active cells. For each triplicate treatment the mean and standard deviation were calculated and analyzed via curve fitting software to determine the respective compound concentration resulting in 50% growth inhibition (GI50) values. For each compound GI50 values were typically determined from at least 2 entirely independent experiments.
TMD8 cells were acquired through a license agreement with Tokyo Medical and Dental University, Japan. Cells are cultivated in MEM Alpha (BioConcept, #1-23F01-I, lot. LB04262P) supplemented with 10% FCS (HyClone, GE #SH30066.03, lot AB217603), 2 mM L-Glutamine (BioConcept, #5-10K50-H, lot. LA03467P), 1% Pen/Strep (BioConcept, #4-01F00-H, lot. LB04235P).

OCI-LY3 cells = assay: Resazurin cell viability assay in DLBCL cells (OCI-LY3); conditions: Homo sapiens, OCI-Ly3, 72 h, OCI-LY3 cells (BTK independent), 50% growth inhibition, read-out: OCI-LY3 Prol GI50
Method: as §1, §6, §7, §8, §9
OCI-LY3 cells were acquired through a license agreement with University Health Network, Toronto, Canada. Cells are cultivated in RPMI1640 media (Gibco, #61870-010, lot. 1894759), supplemented with 10% FCS (HyClone, GE #SH30066.03, lot AB217603), 2 mM L-Glutamine (BioConcept, #5-10K50-H, lot. LA03467P), 1 mM Sodium Pyruvate (BioConcept, #5-60F00-H, lot. LB10510P), 10 mM HEPES (Gibco, #15630-056, lot. 1854074), 1% Pen/Strep (BioConcept, #4-01F00-H, lot. LB04235P).

BTK deg Amax % (BTK-GFP)	DC50 (BTK-GFP)	IKZF3 deg Amax % (IKZF3-GFP; % protein remaining at maximum degradation)	DC50 (IKZF3-GFP)	GI50 (OCI-LY3 cells)	SMILES	GI50 (TMD8 cells)
7.4%	15.5 nM	99.3%	> 370 nM	4080 nM	COc1ccc(C(=O)N2CCC(CN3CCN(Cc4ccc(-c5cc6c(-c7cc(F)cc(NC(=O)N8C[C@@H](CC(C)C)[C@H](O)C8)c7C)ncnc6[nH]5)cc4)CC3)CC2)cc1N1CCC(=O)NC1=O [Compound 10, (3S,4R)—N-(3-(6-(4-((4-((1-(3-(2,4-Dioxotetrahydropyrimidin-1(2H)-yl)-4-methoxybenzoyl)piperidin-4-yl)methyl)piperazin-1-yl)methyl)phenyl)-7H-pyrrolo[2,3-d]pyrimidin-4-yl)-5-fluoro-2-methylphenyl)-3-hydroxy-4-isobutylpyrrolidine-1-carboxamide]	2.31 nM
4%	5.5 nM			> 10000 nM	COc1ccc(C(=O)N2CCC3(CCN(CCc4ccc(-c5cc6c(-c7ccc(F)c(NC(=O)N8C[C@H](CC(C)C)[C@@H](O)C8)c7C)ncnc6[nH]5)cc4)CC3)CC2)cc1N1CCC(=O)NC1=O [Compound 17, (3R,4S)—N-(3-(6-(4-(2-(9-(3-(2,4-dioxotetrahydropyrimidin-1(2H)-yl)-4-methoxybenzoyl)-3,9-diazaspiro[5.5]undecan-3-yl)ethyl)phenyl)-7H-pyrrolo[2,3-d]pyrimidin-4-yl)-6-fluoro-2-methylphenyl)-3-hydroxy-4-isobutylpyrrolidine-1-carboxamide]	0.49 nM
2.4%	1.1 nM			3700 nM	COc1ccc(C(=O)N2CCC(OCCN3CCC(Oc4ccc(-c5cc6c(-c7cc(F)cc(NC(=O)N8C[C@H](CC(C)C)[C@@H](O)C8)c7C)ncnc6[nH]5)cc4)CC3)CC2)cc1N1CCC(=O)NC1=O [Compound 20, (3R,4S)—N-(3-(6-(4-((1-(2-((1-(3-(2,4-Dioxotetrahydropyrimidin-1(2H)-yl)-4-methoxybenzoyl)piperidin-4-yl)oxy)ethyl)piperidin-4-yl)oxy)phenyl)-7H-pyrrolo[2,3-d]pyrimidin-4-yl)-5-fluoro-2-methylphenyl)-3-hydroxy-4-isobutylpyrrolidine-1-carboxamide]	0.29 nM
4%	15.6 nM			3600 nM	COc1ccc(C(=O)N2CCC(CCN3CCC(OCc4ccc(-c5cc6c(-c7cc(F)cc(NC(=O)N8C[C@@H](CC(C)C)[C@H](O)C8)c7C)ncnc6[nH]5)cc4)CC3)CC2)cc1N1CCC(=O)NC1=O [Compound 21, (3S,4R)—N-(3-(6-(4-(((1-(2-(1-(3-(2,4-Dioxotetrahydropyrimidin-1 (2H)-yl)-4-methoxybenzoyl)piperidin-4-yl)ethyl)piperidin-4-yl)oxy)methyl)phenyl)-7H-pyrrolo[2,3-d]pyrimidin-4-yl)-5-fluoro-2-methylphenyl)-3-hydroxy-4-isobutylpyrrolidine-1-carboxamide]	1.17 nM

From US11541056B2, “3-hydroxy-N-(3-(7H-pyrrolo[2,3-d]pyrimidin-4-yl)phenyl)pyrrolidine-1-carboxamide derivatives” (NOVARTIS AG, priority 2018, dated 2023)
